Reference: patent US7825270B2, “Inositolphospholipids and analogues: phosphatidylinositol products and processes” (Nutrimed Biotech, priority 2005, dated 2010)
Blank lines part the entries; values can stand above or below the substance they belong to.

Legend:
[1] = test system: epithelial cell proliferation; settings: cited from earlier work
[2] = solubility in organic solvents; type: physicochemical; settings: alcohol, acetone, ethyl acetate or methanol
[3] = test system: HDL-C levels; settings: administration of PI, humans; cited from earlier work

Substance: D-myo-inositol 4-(hexadecyloxy)-3(S)methoxy-butane-phosphonate
- inhibition of epithelial cell proliferation [1]: inhibit epithelial cell proliferation

- solubility in solvents [2]: dissolved easily
Substance: Soy PI-2,3,4,5,6-penta-O-tetrahydropyranyl ether

Substance: phosphatidylinositol [PI]
- effect on HDL-C levels [3]: raises HDL-C levels
